Reference: US8334287B2 (Hoffmann-La Roche Inc., priority 2009, dated 2012)

The compounds below were run against T1, human mGlu5a receptor (Homo sapiens, UniProt P41594) (assay: mGlu5a receptor binding, displacement of [3H]MPEP). Details: competing radioligand [3H]MPEP; human mGlu5a receptor transiently transfected into EBNA cells; Ki=IC50/1+L/Kd.
T1 construct: expressed in transfected cells; host or cells: EBNA cells (transient transfection); membranes prepared from them
T1 sequence (P41594 21-1180 isoform P41594-2 limits assumed): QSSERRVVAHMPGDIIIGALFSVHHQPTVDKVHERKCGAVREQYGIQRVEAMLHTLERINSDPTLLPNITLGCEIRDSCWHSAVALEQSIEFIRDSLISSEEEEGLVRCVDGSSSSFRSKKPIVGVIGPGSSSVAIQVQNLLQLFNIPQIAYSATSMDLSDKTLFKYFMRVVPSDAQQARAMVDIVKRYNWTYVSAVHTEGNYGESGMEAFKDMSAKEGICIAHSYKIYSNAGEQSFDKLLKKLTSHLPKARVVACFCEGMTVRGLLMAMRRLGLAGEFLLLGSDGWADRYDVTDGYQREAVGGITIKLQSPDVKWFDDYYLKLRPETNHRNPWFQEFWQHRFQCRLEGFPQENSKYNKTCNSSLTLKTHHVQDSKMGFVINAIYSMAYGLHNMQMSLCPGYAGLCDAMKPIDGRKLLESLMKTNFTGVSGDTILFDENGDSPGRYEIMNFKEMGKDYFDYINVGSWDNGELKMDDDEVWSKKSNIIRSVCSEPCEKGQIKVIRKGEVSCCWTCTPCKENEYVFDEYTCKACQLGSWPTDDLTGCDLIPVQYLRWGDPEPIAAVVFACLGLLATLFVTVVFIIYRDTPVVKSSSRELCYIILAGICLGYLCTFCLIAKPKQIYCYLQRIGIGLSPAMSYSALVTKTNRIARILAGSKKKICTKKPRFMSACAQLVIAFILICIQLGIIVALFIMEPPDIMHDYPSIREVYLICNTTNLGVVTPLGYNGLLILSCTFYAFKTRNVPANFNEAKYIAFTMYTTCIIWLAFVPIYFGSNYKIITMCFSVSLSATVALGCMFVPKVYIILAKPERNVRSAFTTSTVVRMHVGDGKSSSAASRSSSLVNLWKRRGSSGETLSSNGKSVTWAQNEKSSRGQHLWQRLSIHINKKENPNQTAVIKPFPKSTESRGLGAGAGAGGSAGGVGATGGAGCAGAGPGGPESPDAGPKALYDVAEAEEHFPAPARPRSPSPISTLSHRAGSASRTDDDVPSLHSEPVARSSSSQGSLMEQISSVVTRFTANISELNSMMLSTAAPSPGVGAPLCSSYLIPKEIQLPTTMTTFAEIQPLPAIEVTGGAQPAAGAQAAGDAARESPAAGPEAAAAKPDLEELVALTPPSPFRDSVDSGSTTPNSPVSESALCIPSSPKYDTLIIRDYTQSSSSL
Procedure: For binding experiments, cDNA encoding human mGlu5a receptor was transiently transfected into EBNA cells using a procedure described by E.-J. Schlaeger and K. Christensen (Cytotechnology 1998, 15, 1-13). For functional assays, [Ca^2+]i measurements were performed largely as described previously (Porter et al., Br J. Pharmacol 1999, 128, 13-20) on stably expressed recombinant human mGlu 5a receptors in HEK-293 cells. The cells were dye loaded using Fluo 4-AM (purchased from Molecular Probes, 2 μM final concentration) [Ca^2+]i measurements were performed using a fluorometric imaging plate reader (FLIPR, Molecular Devices Corporation, La Jolla, Calif., USA). Antagonist evaluation was performed following a 5 minute preincubation with the test compounds followed by the addition of a submaximal addition of agonist.
The inhibition (antagonists) curves were fitted with a four parameter logistic equation giving IC50, and Hill coefficient using the iterative non linear curve fitting software Xcel fit.
The Ki values of the compounds tested are given. The Ki value is defined by the following formula: Ki=IC50/1+L/Kd in which the IC50 values are those concentrations of the compounds tested in which causes 50% inhibition of the competing radioligand ([^3H]MPEP). [L] is the concentration of radioligand used in the binding experiment and the Kd value of the radioligand is empiracally determined for each batch of membranes prepared.
Cc1cccc(C#Cc2nc(C)n(-c3ccn(CCO)c(=O)c3)c2C)c1 [Example 33, 4-[2,5-dimethyl-4-m-tolylethynyl-imidazol-1-yl]-1-(2-hydroxy-ethyl)-1H-pyridin-2-one] was tested, and the Ki was 446 nM. Compound COCCn1ccc(-n2c(C)nc(C#Cc3cccc(C)c3)c2C)cc1=O [Example 34, 4-[2,5-dimethyl-4-m-tolylethynyl-imidazol-1-yl]-1-(2-methoxy-ethyl)-1H-pyridin-2-one] has a Ki of 87 nM. For Cc1nc(C#Cc2ccnc(Cl)c2)c(C)n1-c1cc[nH]c(=O)c1 [Example 35, 4-[4-(2-chloro-pyridin-4-ylethynyl)-2,5-dimethyl-imidazol-1-yl]-1H-pyridin-2-one], the Ki was 347 nM. Work on Cc1nc(C#Cc2ccnc(Cl)c2)c(C)n1-c1ccn(C)c(=O)c1 [Example 36, 4-[4-(2-chloro-pyridin-4-ylethynyl)-2,5-dimethyl-imidazol-1-yl]-1-methyl-1H-pyridin-2-one] yielded a Ki of 173 nM. Work on CCn1ccc(-n2c(C)nc(C#Cc3ccnc(Cl)c3)c2C)cc1=O [Example 37, 4-[4-(2-chloro-pyridin-4-ylethynyl)-2,5-dimethyl-imidazol-1-yl]-1-ethyl-1H-pyridin-2-one] yielded a Ki of 238 nM. COCCn1ccc(-n2c(C)nc(C#Cc3ccnc(Cl)c3)c2C)cc1=O [Example 39, 4-[4-(2-chloro-pyridin-4-ylethynyl)-2,5-dimethyl-imidazol-1-yl]-1-(2-methoxy-ethyl)-1H-pyridin-2-one] gave a Ki of 285 nM. Cc1nc(C#Cc2cccc(F)c2)c(C)n1-c1ccn(C)c(=O)c1 [Example 41, 4-[4-(3-fluoro-phenylethynyl)-2,5-dimethyl-imidazol-1-yl]-1-methyl-1H-pyridin-2-one] was tested, and the Ki was 52 nM. With Cc1nc(C#Cc2cccc(Cl)c2)c(C)n1-c1cnn(C)c(=O)c1 [Example 42, 5-[4-(3-chloro-phenylethynyl)-2,5-dimethyl-imidazol-1-yl]-2-methyl-2H-pyridazin-3-one] the Ki was 38 nM. Work on Cc1nc(C#Cc2ccnc(Cl)c2)c(C)n1-c1cnn(C)c(=O)c1 [Example 43, 5-[4-(2-chloro-pyridin-4-ylethynyl)-2,5-dimethyl-imidazol-1-yl]-2-methyl-2H-pyridazin-3-one] yielded a Ki of 306 nM. With Cc1cccc(C#Cc2nc(C)n(-c3cnn(C)c(=O)c3)c2C)c1 [Example 44, 5-(2,5-dimethyl-4-m-tolylethynyl-imidazol-1-yl)-2-methyl-2H-pyridazin-3-one] the Ki was 71 nM. In the case of Cc1cccc(C#Cc2nc(C)n(-c3cc(=O)n(C)cn3)c2C)c1 [Example 45, 6-(2,5-dimethyl-4-m-tolylethynyl-imidazol-1-yl)-3-methyl-3H-pyrimidin-4-one], the Ki is reported as 74 nM. Compound Cc1nc(C#Cc2ccnc(Cl)c2)c(C)n1-c1cc(=O)n(C)cn1 [Example 46, 6-[4-(2-chloro-pyridin-4-ylethynyl)-2,5-dimethyl-imidazol-1-yl]-3-methyl-3H-pyrimidin-4-one] has a Ki of 569 nM. Work on CNC(=O)Cn1ccc(-n2cc(C#Cc3cccc(C)c3)nc2C)cc1=O [Example 48, N-methyl-2-[4-(2-methyl-4-m-tolylethynyl-imidazol-1-yl)-2-oxo-2H-pyridin-1-yl]-acetamide] yielded a Ki of 788 nM. Work on Cc1cccc(C#Cc2cn(-c3ccn(CS(C)(=O)=O)c(=O)c3)c(C)n2)c1 [Example 50] yielded a Ki of 559 nM. Work on CCn1ncc(-n2cc(C#Cc3cccc(C)c3)nc2C)cc1=O [Example 51, 2-ethyl-5-(2-methyl-4-m-tolylethynyl-imidazol-1-yl)-2H-pyridazin-3-one] yielded a Ki of 53 nM. In the case of CCn1ncc(-n2cc(C#Cc3cccc(Cl)c3)nc2C)cc1=O [Example 52, 5-[4-(3-Chloro-phenylethynyl)-2-methyl-imidazol-1-yl]-2-ethyl-2H-pyridazin-3-one], the Ki is reported as 37 nM. In the case of CCn1ncc(-n2cc(C#Cc3ccnc(Cl)c3)nc2C)cc1=O [Example 53, 5-[4-(2-chloro-pyridin-4-ylethynyl)-2-methyl-imidazol-1-yl]-2-ethyl-2H-pyridazin-3-one], the Ki is reported as 204 nM. COCCn1ncc(-n2cc(C#Cc3cccc(C)c3)nc2C)cc1=O [Example 54, 2-(2-methoxy-ethyl)-5-(2-methyl-4-m-tolylethynyl-imidazol-1-yl)-2H-pyridazin-3-one] was tested, and the Ki was 131 nM. For COCCn1ncc(-n2cc(C#Cc3cccc(Cl)c3)nc2C)cc1=O [Example 55, 5-[4-(3-Chloro-phenylethynyl)-2-methyl-imidazol-1-yl]-2-(2-methoxy-ethyl)-2H-pyridazin-3-one], the Ki was 93 nM. For COCCn1ncc(-n2cc(C#Cc3ccnc(Cl)c3)nc2C)cc1=O [Example 56], the Ki was 597 nM. Work on COCCn1ncc(-n2c(C)nc(C#Cc3ccnc(Cl)c3)c2C)cc1=O [Example 57, 5-[4-(2-Chloro-pyridin-4-ylethynyl)-2,5-dimethyl-imidazol-1-yl]-2-(2-methoxy-ethyl)-2H-pyridazin-3-one] yielded a Ki of 808 nM.
